This passage reports inhibition results from the Kinase Knowledgebase extract (Sharma et al. 2016).

As usually defined, the inhibition is the change of the read-out against control, counted positive when it falls.

The target of the test is CDK2 (human) (UniProt P24941). The test is described as follows: Enzyme Assay. To be noted: concentration not given here.
`C[C@H](CC(=O)N1CCC(Nc2nc(N)c(C(=O)c3c(F)cccc3F)s2)CC1)c1ccccc1`: the inhibition amounted to 49%.

On to `CS(=O)(=O)c1ccccc1S(=O)(=O)N1CCC(Nc2nc(N)c(C(=O)c3c(F)cccc3F)s2)CC1`, for which the inhibition was -5%.

As for `COc1cc(N)ccc1/C=C/C(=O)N1CCC(Nc2nc(N)c(C(=O)c3c(F)cccc3F)s2)CC1`, the inhibition was determined as 56%.

As to `Cc1ccc(OCC(=O)N2CCC(Nc3nc(N)c(C(=O)c4c(F)cccc4F)s3)CC2)c(C)c1`, the inhibition was 51%.

For `Nc1nc(NC2CCN(C(=O)CC3CCCC3)CC2)sc1C(=O)c1c(F)cccc1F`, the inhibition was -20%.

With `CCOCC(=O)N1CCC(Nc2nc(N)c(C(=O)c3c(F)cccc3F)s2)CC1`, the inhibition was 62%.

As to `Nc1nc(NC2CCN(C(=O)COc3ccccc3)CC2)sc1C(=O)c1c(F)cccc1F`, the inhibition is 59%.

Take `Nc1nc(NC2CCN(C(=O)CCC(=O)c3cccs3)CC2)sc1C(=O)c1c(F)cccc1F`: the inhibition stood at 63%.

`Nc1nc(NC2CCN(C(=O)c3ccc(C(F)(F)F)cc3C(F)(F)F)CC2)sc1C(=O)c1c(F)cccc1F`: the inhibition came to 0%.

Regarding `Nc1nc(NC2CCN(C(=O)Cc3ccc4c(c3)OCO4)CC2)sc1C(=O)c1c(F)cccc1F`, the inhibition came out at 39%.

For the molecule `C[C@](O)(C(=O)N1CCC(Nc2nc(N)c(C(=O)c3c(F)cccc3F)s2)CC1)c1ccccc1`, the inhibition came out at 77%.

As for `Nc1nc(NC2CCN(C(=O)Cc3ccc(O)c(F)c3)CC2)sc1C(=O)c1c(F)cccc1F`, the inhibition turned out to be 59%.

Consider `Nc1nc(NC2CCN(C(=O)c3ccc(F)cc3F)CC2)sc1C(=O)c1c(F)cccc1F`, for which the inhibition turned out to be 67%.

As for `Nc1nc(NC2CCN(C(=O)c3ccoc3)CC2)sc1C(=O)c1c(F)cccc1F`, the inhibition was found to be 34%.

With `CC(=O)SC(C)CC(=O)N1CCC(Nc2nc(N)c(C(=O)c3c(F)cccc3F)s2)CC1` (configuration not stated), the inhibition turned out to be 50%.

As for `CCCSc1ncccc1C(=O)N1CCC(Nc2nc(N)c(C(=O)c3c(F)cccc3F)s2)CC1`, the inhibition was 44%.

Turning to `Nc1nc(NC2CCN(C(=O)COc3ccc(F)cc3)CC2)sc1C(=O)c1c(F)cccc1F`, the inhibition was 83%.

For the molecule `CN(C)c1ccc(NC(=O)N2CCC(Nc3nc(N)c(C(=O)c4c(F)cccc4F)s3)CC2)cc1`, the inhibition was found to be 23%.

Consider `CO[C@](C(=O)N1CCC(Nc2nc(N)c(C(=O)c3c(F)cccc3F)s2)CC1)(c1ccccc1)C(F)(F)F`, for which the inhibition was -29%.

For `CC(C)(O)CC(=O)N1CCC(Nc2nc(N)c(C(=O)c3c(F)cccc3F)s2)CC1`, the inhibition came out at 51%.

With `COC(=O)CCCCC(=O)N1CCC(Nc2nc(N)c(C(=O)c3c(F)cccc3F)s2)CC1`, the inhibition was -5%.

As for `CCSc1ncccc1C(=O)N1CCC(Nc2nc(N)c(C(=O)c3c(F)cccc3F)s2)CC1`, the inhibition is 38%.

For the molecule `Cc1cccc(C(=O)N2CCC(Nc3nc(N)c(C(=O)c4c(F)cccc4F)s3)CC2)n1`, the inhibition amounted to 60%.

Take `C=CCC(C)C(=O)N1CCC(Nc2nc(N)c(C(=O)c3c(F)cccc3F)s2)CC1` (configuration not stated): the inhibition amounted to 21%.

For `COc1c(C)cccc1C(=O)N1CCC(Nc2nc(N)c(C(=O)c3c(F)cccc3F)s2)CC1`, the inhibition amounted to 10%.

For the molecule `Nc1nc(NC2CCN(C(=O)c3ccc(C=O)o3)CC2)sc1C(=O)c1c(F)cccc1F`, the inhibition was 39%.

As to `Nc1nc(NC2CCN(C(=O)c3cccs3)CC2)sc1C(=O)c1c(F)cccc1F`, the inhibition came to 80%.

For `Cn1ncc(C(=O)N2CCC(Nc3nc(N)c(C(=O)c4c(F)cccc4F)s3)CC2)c1[N+](=O)[O-]`, the inhibition was determined as 40%.

Turning to `COC(=O)c1cccc(C(=O)N2CCC(Nc3nc(N)c(C(=O)c4c(F)cccc4F)s3)CC2)c1`, the inhibition worked out at 65%.

For the molecule `Nc1nc(NC2CCN(C(=O)C/C=C/c3ccccc3)CC2)sc1C(=O)c1c(F)cccc1F`, the inhibition was 29%.

`Nc1nc(NC2CCN(C(=O)C(c3ccccc3)c3ccccc3)CC2)sc1C(=O)c1c(F)cccc1F`: the inhibition is -34%.

As for `Cc1cc(F)ccc1OCC(=O)N1CCC(Nc2nc(N)c(C(=O)c3c(F)cccc3F)s2)CC1`, the inhibition amounted to 80%.
